What was measured:
[1] = 26-week clinical trial in adult patients with T2D: gastrointestinal adverse events incl. nausea; assay type: in vivo, human; conditions: on-treatment
Description: A 26-week, randomized, double-blind clinical trial was carried out with adult patients with T2D, HbA1c 7.0-10.0% (53-86 mmol/mol), and body mass index 24.0-40.0 kg/m^2 who were treated with diet and exercise±metformin. […] The primary endpoint was change in HbA1c from baseline to week 26. Key exclusion criteria were a history of chronic or idiopathic acute pancreatitis and moderate-to-severe renal impairment (estimated glomerular filtration rate <60 mL/min/1.73 m^2).
Trial drug administration: Following a 2-week screening period, patients received trial medication for 26 weeks, followed by a 7-week follow-up period. […] The trial was double blinded within (but not between) each dose level of semaglutide, liraglutide and placebo, as treatment was volume matched.

[2] = 52-week clinical trial in obese subjects without diabetes mellitus: gastrointestinal adverse events; assay type: in vivo, human; conditions: Lira 3.0 mg once daily s.c., on-treatment
Description: This trial was designed as a 52-week, randomised, double-blind, placebo-controlled, sixteen-armed, parallel group, multi-centre, multinational trial comparing once-daily subcutaneous administration of semaglutide in five different doses (ranging from 0.05 mg/day to 0.4 mg/day) with placebo in obese subjects without diabetes mellitus. […] The trial was double-blinded between active and placebo treatment. To ensure a sufficiently large sample of men, no more than 70% of the trial population was allowed to be women and the randomisation was stratified according to sex. Subjects were randomised in a balanced manner (6:1 active:placebo).
The primary endpoint was relative change from baseline in body weight (%) at 52 weeks. Key secondary endpoints included proportion of subjects with weight loss of ≥5% or ≥10% of baseline body weight at 52 weeks as well as change in body weight from baseline to 52 weeks. Supportive secondary safety endpoints also included gastrointestinal (GI) adverse events (i.e. nausea, vomiting, diarrhoea and constipation). During each site visit the individual subject was asked via open questions if they had experienced any medical problems since the last visit. All medical problems either observed by the site staff or the subject was reported as an adverse event and evaluated for severity and causality by the investigator. For this trial the subjects had site visits every 2 weeks for the first 20 weeks of the trial and afterwards site visits was performed every 4 weeks.
Subjects in all treatment arms including placebo received nutritional counselling and a calorie-reduced diet by a dietician or equivalent qualified delegate as well as physical activity counselling by a qualified person on a monthly basis beginning at the randomisation visit. The trial population consisted of a total of 957 subjects were randomised. A total of 777 subjects (81.2%) completed 52 weeks of treatment; 180 (18.8%) discontinued treatment prematurely with no obvious dose-dependent trend. Key inclusion criteria for this trial were: Male or female, age ≥18 years at the time of signing inform consent; body mass index (BMI)≥30.0 kg/m2 at the screening visit; and at least one unsuccessful weight loss attempt per investigator judgement. Key exclusion criteria for this trial were: A HbA1c≥6.5% at screening or diagnosed with type 1 or type 2 diabetes mellitus; Treatment with glucose lowering agent(s) within 90 days before screening; Screening calcitonin ≥50 ng/L (pg/mL); Personal or family history of medullary thyroid carcinoma or multiple endocrine neoplasia syndrome type 2; History of pancreatitis (acute or chronic); Obesity induced by endocrine disorders (e.g. Cushing Syndrome); Treatment with any medication within 90 days before screening that based on investigator's judgement may cause significant weight change; Previous surgical treatment for obesity (liposuction and/or abdominoplasty performed >1 year before screening is allowed); History of major depressive disorder within 2 years before randomisation; Any lifetime history of a suicidal attempt; and Female who is pregnant, breast-feeding or intends to become pregnant or is of childbearing potential and not using an adequate contraceptive method (adequate contraceptive measures as required by local regulation or practice).

[3] = Lira 0.3 mg once daily s.c., N 64
[4] = Lira 0.6 mg once daily s.c., N 64
[5] = Lira 1.2 mg once daily s.c., N 64
[6] = Lira 1.8 mg once daily s.c., N 65

With `CCCCCCCCCCCCCCCC(=O)N[C@@H](CCC(=O)NCCCC[C@H](NC(=O)[C@H](C)NC(=O)[C@H](C)NC(=O)[C@H](CCC(N)=O)NC(=O)CNC(=O)[C@H](CCC(=O)O)NC(=O)[C@H](CC(C)C)NC(=O)[C@H](Cc1ccc(O)cc1)NC(=O)[C@H](CO)NC(=O)[C@H](CO)NC(=O)[C@@H](NC(=O)[C@H](CC(=O)O)NC(=O)[C@H](CO)NC(=O)[C@@H](NC(=O)[C@H](Cc1ccccc1)NC(=O)[C@@H](NC(=O)CNC(=O)[C@H](CCC(=O)O)NC(=O)[C@H](C)NC(=O)[C@@H](N)Cc1cnc[nH]1)[C@@H](C)O)[C@@H](C)O)C(C)C)C(=O)N[C@@H](CCC(=O)O)C(=O)N[C@@H](Cc1ccccc1)C(=O)N[C@H](C(=O)N[C@@H](C)C(=O)N[C@@H](Cc1c[nH]c2ccccc12)C(=O)N[C@@H](CC(C)C)C(=O)N[C@H](C(=O)N[C@@H](CCCNC(=N)N)C(=O)NCC(=O)N[C@@H](CCCNC(=N)N)C(=O)NCC(=O)O)C(C)C)[C@@H](C)CC)C(=O)O` [Lira, liraglutide, reference compound] the “Gastrointestinal adverse events, % (percentage of patients experiencing at least one event)” value ([1]; Lira 0.3 mg once daily s.c.) was 21.9%, the “Gastrointestinal adverse events, E (number of events)” value (from here on “Gastrointestinal adverse events, E”) ([1]; Lira 0.3 mg once daily s.c.) was 25 and the “Nausea, % (percentage of patients experiencing at least one event)” value ([1]; Lira 0.3 mg once daily s.c.) was 9.4%. The “Nausea, E (number of events)” value ([1]; Lira 0.3 mg once daily s.c.) was 7, the “Gastrointestinal adverse events, Ne (number of patients experiencing at least one event)” value (“Gastrointestinal adverse events, Ne” for short) [1, 3] was 14 and the “Nausea, Ne (number of patients experiencing at least one event)” value [1, 3] was 6. For the same compound, the “Gastrointestinal adverse events, % (percentage of patients experiencing at least one event)” value ([1]; Lira 0.6 mg once daily s.c.) was 29.7%, the “Gastrointestinal adverse events, E” value ([1]; Lira 0.6 mg once daily s.c.) was 62 and the “Nausea, % (percentage of patients experiencing at least one event)” value ([1]; Lira 0.6 mg once daily s.c.) was 10.9%. The “Nausea, E (number of events)” value ([1]; Lira 0.6 mg once daily s.c.) was 11, the “Gastrointestinal adverse events, Ne” value [1, 4] was 19 and the “Nausea, Ne (number of patients experiencing at least one event)” value [1, 4] was 7. For the same compound, the “Gastrointestinal adverse events, % (percentage of patients experiencing at least one event)” value ([1]; Lira 1.2 mg once daily s.c.) was 31.3%, the “Gastrointestinal adverse events, E” value ([1]; Lira 1.2 mg once daily s.c.) was 40 and the “Nausea, % (percentage of patients experiencing at least one event)” value ([1]; Lira 1.2 mg once daily s.c.) was 10.9%. For the same compound, the “Nausea, E (number of events)” value ([1]; Lira 1.2 mg once daily s.c.) was 11, the “Gastrointestinal adverse events, Ne” value [1, 5] was 20 and the “Nausea, Ne (number of patients experiencing at least one event)” value [1, 5] was 7. For the same compound, the “Gastrointestinal adverse events, % (percentage of patients experiencing at least one event)” value ([1]; Lira 1.8 mg once daily s.c.) was 41.5%, the “Gastrointestinal adverse events, E” value ([1]; Lira 1.8 mg once daily s.c.) was 81 and the “Nausea, % (percentage of patients experiencing at least one event)” value ([1]; Lira 1.8 mg once daily s.c.) was 20.0%. The “Nausea, E (number of events)” value ([1]; Lira 1.8 mg once daily s.c.) was 18, the “Gastrointestinal adverse events, Ne” value [1, 6] was 27 and the “Nausea, Ne (number of patients experiencing at least one event)” value [1, 6] was 13. The “Gastrointestinal adverse events, Observed data, % (percentage of subjects with at least one event)” value [2] was 74.8%, the “Nausea, % (percentage of subjects experiencing at least one event)” value ([2]; observed data) was 44.7% and the “Nausea, E (number of events)” value ([2]; observed data) was 89. For the same compound, the “Nausea, Ne (number of subjects experiencing at least one event)” value ([2]; observed data, N 103) was 46 and the “Gastrointestinal adverse events, Observed data, Ne (number of subjects experiencing at least one event)” value ([2]; N 103) was 77.

Source: patent publication US12551536B2, “Semaglutide in medical therapy” (Novo Nordisk A/S, priority 2017, dated 2026)
